For two compounds, IC50 results are on record in patent US7038055B2, “Sulfone derivatives and their use in the treatment of autoimmune diseases and allergies” (SmithKlineBeecham plc, priority 2001, dated 2006).

One experiment deals with T1, MMP-13 (Homo sapiens, UniProt P45452).
T1 construct: purchased Calbiochem
Kind of experiment: General MMP Inhibition Assay, fluorescence quench (MMP-13). As to conditions: room temperature. The experiment is classed as biochemical. The protocol:
(§1) General MMP Inhibition Assays:
(§2) Inhibition of matrix metalloprotease activity was determined using a fluorescence quench assay with appropriate substrate. For example, MMP activity was determined using MMP activated using trypsin, according to Lark et al, Connective Tissue Res. 25, 52 (1990). The MMP is incubated at room temperature in a microtitre plate in a total volume of 100 ul, containing 0.15 M Tris Cl, 15 mM CaCl2, 0.2 M NaCl, pH 7.6 (assay buffer); inhibitor at concentrations up to 100 uM, with no more than 2% DMSO final concentration, 10 uM substrate (such as SDP-3815-PI for MMP-1, Peptides International). The MMP concentration is <10 nM, and determined empirically with the appropriate substrate to give at least a 20-fold increase in fluorescence emission in 30 min. Fluorescent excitation wavelength was 355 nm, emission wavelength 400–460 nm, and data points are collected to generate slope (change in fluorescence with time). Percent inhibition for each concentration is calculated from the slope at time zero, and IC50 values from the concentration dependence. MMP-1, 2, 3, 7, 9, 13, 14 may all be assayed in the same manner, using commercially available substrates reported to be effective for each enzyme. Enzymes were obtained from Calbiochem and activated using the same trypsin method.

The subject of experiment [1] is CD23 cleavage activity (release of soluble CD23) in RPMI 8866 cell plasma membranes. Put plainly: RPMI 8866 Cell Membrane CD23 Cleavage Activity Assay. The format is biochemical, human. Particulars: RPMI 8866 plasma membranes, 37° C., sCD23 by EIA; read-out: IC50, inhibition of production of sCD23. The protocol:
Procedure 1: The ability of test compounds to inhibit the release of soluble CD23 was investigated by use of the following procedure.
RPMI 8866 Cell Membrane CD23 Cleavage Activity Assay:
Plasma membranes from RPMI 8866 cells, a human Epstein-Barr virus transformed B-cell line (Sarfati et al., Immunology 60 [1987] 539–547) expressing high levels of CD23 are purified using an aqueous extraction method. Cells resuspended in homogenization buffer (20 mM HEPES pH 7.4, 150 mM NaCl, 1.5 mM MgCl2, 1 mM DTT) are broken by N2 cavitation in a Parr bomb and the plasma membrane fraction mixed with other membranes is recovered by centrifugation at 10,000×g. […]
The fractionated membranes are incubated at 37° C. for times up to 4 hrs to produce fragments of CD23 which are separated from the membrane by filtration in 0.2 micron Durapore filter plates (Millipore) after quenching the assay with a non-selecitve MMP inhibitor, e.g. 5 uM Preparation 1 from WO 95/31457 ([4-(N-Hydroxyamino)-2-(R)-isobutyl-3-(S)-(2-thiophenethiomethyl)succinyl]-(S)-phenylalanine-N-methylamide sodium salt, prepared according to the procedure described in Example 11 of WO 90/05719). sCD23 released from the membrane is determined using the EIA kit from The Binding Site (Birmingham, UK) or a similar one utilising MHM6 anti-CD23 mAb [Rowe et al., Int. […]

Experiment [2] addresses T2, human recombinant collagenase (Homo sapiens, UniProt P03956).
T2 construct: made in house; host or cells: E. coli
T2 sequence (P03956 100-469): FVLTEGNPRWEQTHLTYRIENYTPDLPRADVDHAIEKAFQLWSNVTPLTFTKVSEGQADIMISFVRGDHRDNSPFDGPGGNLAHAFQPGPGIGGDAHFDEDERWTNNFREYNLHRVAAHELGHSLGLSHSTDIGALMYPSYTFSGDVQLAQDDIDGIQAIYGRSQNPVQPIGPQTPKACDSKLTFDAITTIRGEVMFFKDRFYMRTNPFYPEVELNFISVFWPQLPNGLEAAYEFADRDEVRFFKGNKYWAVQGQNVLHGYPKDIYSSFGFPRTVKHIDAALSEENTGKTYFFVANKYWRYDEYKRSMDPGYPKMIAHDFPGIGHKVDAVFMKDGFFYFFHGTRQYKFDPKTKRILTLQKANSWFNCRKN
Kind of experiment: Collagenase Inhibition Assay. Particulars: 37° C., 18 h, 3H type 1 bovine collagen; read-out: IC50, collagenase inhibition (procedure 2). The format is biochemical. The protocol:
Procedure 2: The ability of test compounds to inhibit matrix metalloproteases was investigated using the following procedures.
Collagenase Inhibition Assay:
The potency of compounds to act as inhibitors of collagenase was determined by the method of Cawston and Barrett (Anal. Biochem. 99, 340–345, 1979), hereby incorporated by reference, whereby a 1 mM solution of the inhibitor being tested or dilutions thereof, was incubated at 37° C. for 18 h with collagen and human recombinant collagenase, from synovial fibroblasts cloned, expressed and purified from E. Coli, (buffered with 150 mM Tris, pH 7.6, containing 15 mM calcium chloride, 0.05% Brij 35, 200 mM sodium chloride and 0.02% sodium azide). The collagen was acetylated ^3H type 1 bovine collagen prepared by the method of Cawston and Murphy (methods in Enzymology 80, 711, 1981) The samples were centrifuged to sediment undigested collagen and an aliquot of the radioactive supernatant removed for assay on a scintillation counter as a measure of hydrolysis. The collagenase activity in the presence of 1 mM inhibitor, or dilution thereof, was compared to activity in a control devoid of inhibitor and the results reported as that concentration effecting 50% of the collagenase (IC50).

The target in another experiment is T3, MMP-3 (Homo sapiens, UniProt P08254).
T3 construct: purchased Calbiochem
T3 sequence (P08254 100-477, species assumed): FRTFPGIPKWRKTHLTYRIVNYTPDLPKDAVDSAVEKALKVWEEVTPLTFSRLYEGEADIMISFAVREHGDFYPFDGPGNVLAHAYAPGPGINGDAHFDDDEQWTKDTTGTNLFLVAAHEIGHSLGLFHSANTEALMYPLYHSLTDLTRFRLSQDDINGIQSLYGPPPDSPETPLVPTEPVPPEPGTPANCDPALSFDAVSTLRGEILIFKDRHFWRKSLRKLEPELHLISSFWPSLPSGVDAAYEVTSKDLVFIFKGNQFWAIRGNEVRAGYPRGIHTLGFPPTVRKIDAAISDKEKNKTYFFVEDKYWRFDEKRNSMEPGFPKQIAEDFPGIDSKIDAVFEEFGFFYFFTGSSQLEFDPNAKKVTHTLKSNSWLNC
Kind of experiment: General MMP Inhibition Assay, fluorescence quench (MMP-3). The format is biochemical. Particulars: room temperature. The protocol:
as §1, §2

Structures are written as SMILES.

A word on the IC50: it is the concentration that gives 50% inhibition. On MMP-13, `CO[C@@H](C)C(CS(=O)(=O)Cc1cnc2ccccc2c1)N(O)C=O` (stereo in doubt) [Example 2, N-[(2R,3S)-3-methoxy-1-(quinolin-3-yl-methanesulfonyl)butan-2-yl]-hydroxyformamide] displayed an IC50 of 3 µM.
In the case of `CO[C@H](C)[C@@H](CS(=O)(=O)Cc1cnc2ccccc2c1)N(O)C=O` [Example 1, N-[(2S,3R)-3-methoxy-1-(quinolin-3-yl-methanesulfonyl)butan-2-yl]-hydroxyformamide], the 50% inhibitory concentration (IC50) in experiment [1] was 0.02 µM; in experiment [2], over 10 µM; against MMP-3, over 10 µM; against MMP-13, 2.6 µM.
